In ChEMBL document CHEMBL3885881, “DrugMatrix”:

Species: Rattus norvegicus
Test: DrugMatrix - Regimen: Daily Repeat
Format: toxicity, organism-based, Sprague-Dawley
Design: regimen Daily Repeat, gender Male, age 6-8 weeks
Settings: in vivo, po, route oral GAVAGE, […]; for ABSOLUTE BASOPHIL / ABSOLUTE EOSINOPHIL / ABSOLUTE LYMPHOCYTE / ABSOLUTE MONOCYTE / ABSOLUTE SEGMENTED NEUTROPHIL / BASOPHIL / EOSINOPHIL / ERYTHROCYTE COUNT / HEMATOCRIT / HEMOGLOBIN / LEUKOCYTE COUNT / LYMPHOCYTE / MEAN CORPUSCULAR HEMOGLOBIN / MEAN CORPUSCULAR HEMOGLOBIN CONCENTRATION / MEAN CORPUSCULAR VOLUME / MONOCYTE / NEUTROPHIL / NUCLEATED RED BLOOD CELLS / PLATELET COUNT: tissue Blood; for ALANINE AMINOTRANSFERASE / ALBUMIN / ALKALINE PHOSPHATASE / ASPARTATE AMINOTRANSFERASE / BLOOD UREA NITROGEN / CARBON DIOXIDE / CHLORIDE / CHOLESTEROL / CREATINE PHOSPHOKINASE / CREATININE / GLUCOSE / LACTATE DEHYDROGENASE / LIPASE / PHOSPHORUS / POTASSIUM / SODIUM / TOTAL BILIRUBIN / TOTAL PROTEIN / URIC ACID: tissue Plasma
[1] = 0 mg/kg, 72 h, dose level Control, time 3 day
[2] = 0 mg/kg, 120 h, dose level Control, time 5 day
[3] = 30 mg/kg, 72 h, dose level Low, time 3 day
[4] = 30 mg/kg, 120 h, dose level Low, time 5 day

## COc1ccc2[nH]c([S+]([O-])Cc3ncc(C)c(OC)c3C)nc2c1 (configuration not stated) [OMEPRAZOLE]
[1]
  ABSOLUTE BASOPHIL: 0 CELLS/uL
  ABSOLUTE EOSINOPHIL: 70.67 CELLS/uL
  ABSOLUTE LYMPHOCYTE: 12761.5 CELLS/uL
  ABSOLUTE MONOCYTE: 214.17 CELLS/uL
  ABSOLUTE SEGMENTED NEUTROPHIL: 987 CELLS/uL
  BASOPHIL: 0%
  EOSINOPHIL: 0.5%
  ERYTHROCYTE COUNT: 5.61 x10E6/uL
  HEMATOCRIT: 35.22%
  HEMOGLOBIN: 13.57 G/DL
  LEUKOCYTE COUNT: 14.03 x10E3/uL
  LYMPHOCYTE: 91%
  MEAN CORPUSCULAR HEMOGLOBIN: 24.25 pg
  MEAN CORPUSCULAR HEMOGLOBIN CONCENTRATION: 38.52 G/DL
  MEAN CORPUSCULAR VOLUME: 62.9 fL
  MONOCYTE: 1.5%
  NEUTROPHIL: 7%
  NUCLEATED RED BLOOD CELLS: 0 /100WBC
  PLATELET COUNT: 997.5 x10E3/uL
  ALANINE AMINOTRANSFERASE: 66.5 u/L
  ALBUMIN: 3.98 G/DL
  ALKALINE PHOSPHATASE: 350 u/L
  ASPARTATE AMINOTRANSFERASE: 83.83 u/L
  BLOOD UREA NITROGEN: 12.33 mg/dL
  CARBON DIOXIDE: 30.33 mmol/L
  CHLORIDE: 100 MEQ/L
  CHOLESTEROL: 75 mg/dL
  CREATINE PHOSPHOKINASE: 200 u/L
  CREATININE: 0.17 mg/dL
  GLUCOSE: 170 mg/dL
  LACTATE DEHYDROGENASE: 89.33 u/L
  LIPASE: 10.33 u/L
  PHOSPHORUS: 10.88 mg/dL
  POTASSIUM: 6.13 MEQ/L
  SODIUM: 140.53 MEQ/L
  TOTAL BILIRUBIN: 0.2 mg/dL
  TOTAL PROTEIN: 5.67 G/DL
  URIC ACID: 1.6 mg/dL
[2]
  ABSOLUTE BASOPHIL: 0 CELLS/uL
  ABSOLUTE EOSINOPHIL: 0 CELLS/uL
  ABSOLUTE LYMPHOCYTE: 9526.67 CELLS/uL
  ABSOLUTE MONOCYTE: 134.17 CELLS/uL
  ABSOLUTE SEGMENTED NEUTROPHIL: 922.5 CELLS/uL
  BASOPHIL: 0%
  EOSINOPHIL: 0%
  ERYTHROCYTE COUNT: 5.58 x10E6/uL
  HEMATOCRIT: 34.78%
  HEMOGLOBIN: 13.5 G/DL
  LEUKOCYTE COUNT: 10.58 x10E3/uL
  LYMPHOCYTE: 90.17%
  MEAN CORPUSCULAR HEMOGLOBIN: 24.27 pg
  MEAN CORPUSCULAR HEMOGLOBIN CONCENTRATION: 38.82 G/DL
  MEAN CORPUSCULAR VOLUME: 62.48 fL
  MONOCYTE: 1.17%
  NEUTROPHIL: 8.67%
  NUCLEATED RED BLOOD CELLS: 0.17 /100WBC
  PLATELET COUNT: 807.17 x10E3/uL
  ALANINE AMINOTRANSFERASE: 66.83 u/L
  ALBUMIN: 3.73 G/DL
  ALKALINE PHOSPHATASE: 286.17 u/L
  ASPARTATE AMINOTRANSFERASE: 142.33 u/L
  BLOOD UREA NITROGEN: 14.67 mg/dL
  CARBON DIOXIDE: 25.5 mmol/L
  CHLORIDE: 89.17 MEQ/L
  CHOLESTEROL: 75.17 mg/dL
  CREATINE PHOSPHOKINASE: 310.67 u/L
  CREATININE: 0.2 mg/dL
  GLUCOSE: 153 mg/dL
  LACTATE DEHYDROGENASE: 1594 u/L
  LIPASE: 14.83 u/L
  PHOSPHORUS: 11.28 mg/dL
  POTASSIUM: 8.46 MEQ/L
  SODIUM: 126.88 MEQ/L
  TOTAL BILIRUBIN: 0.37 mg/dL
  TOTAL PROTEIN: 5.53 G/DL
  URIC ACID: 1.52 mg/dL
[3]
  ABSOLUTE BASOPHIL: 0 CELLS/uL
  ABSOLUTE EOSINOPHIL: 80 CELLS/uL
  ABSOLUTE LYMPHOCYTE: 11444.67 CELLS/uL
  ABSOLUTE MONOCYTE: 85.33 CELLS/uL
  ABSOLUTE SEGMENTED NEUTROPHIL: 690 CELLS/uL
  BASOPHIL: 0%
  EOSINOPHIL: 0.67%
  ERYTHROCYTE COUNT: 5.41 x10E6/uL
  HEMATOCRIT: 34.37%
  HEMOGLOBIN: 13.77 G/DL
  LEUKOCYTE COUNT: 12.3 x10E3/uL
  LYMPHOCYTE: 93%
  MEAN CORPUSCULAR HEMOGLOBIN: 25.47 pg
  MEAN CORPUSCULAR HEMOGLOBIN CONCENTRATION: 40.07 G/DL
  MEAN CORPUSCULAR VOLUME: 63.53 fL
  MONOCYTE: 0.67%
  NEUTROPHIL: 5.67%
  NUCLEATED RED BLOOD CELLS: 0.67 /100WBC
  PLATELET COUNT: 1225.33 x10E3/uL
  ALANINE AMINOTRANSFERASE: 59.67 u/L
  ALBUMIN: 4.03 G/DL
  ALKALINE PHOSPHATASE: 348.67 u/L
  ASPARTATE AMINOTRANSFERASE: 77.33 u/L
  BLOOD UREA NITROGEN: 12 mg/dL
  CARBON DIOXIDE: 29.33 mmol/L
  CHLORIDE: 101 MEQ/L
  CHOLESTEROL: 72.33 mg/dL
  CREATINE PHOSPHOKINASE: 303.67 u/L
  CREATININE: 0.14 mg/dL
  GLUCOSE: 175.33 mg/dL
  LACTATE DEHYDROGENASE: 111 u/L
  LIPASE: 10.33 u/L
  PHOSPHORUS: 12.23 mg/dL
  POTASSIUM: 6.24 MEQ/L
  SODIUM: 143.63 MEQ/L
  TOTAL BILIRUBIN: 0.17 mg/dL
  TOTAL PROTEIN: 5.8 G/DL
  URIC ACID: 1.57 mg/dL
[4]
  ABSOLUTE BASOPHIL: 0 CELLS/uL
  ABSOLUTE EOSINOPHIL: 0 CELLS/uL
  ABSOLUTE LYMPHOCYTE: 8312.33 CELLS/uL
  ABSOLUTE MONOCYTE: 87.33 CELLS/uL
  ABSOLUTE SEGMENTED NEUTROPHIL: 233.67 CELLS/uL
  BASOPHIL: 0%
  EOSINOPHIL: 0%
  ERYTHROCYTE COUNT: 6.01 x10E6/uL
  HEMATOCRIT: 36%
  HEMOGLOBIN: 13.93 G/DL
  LEUKOCYTE COUNT: 8.63 x10E3/uL
  LYMPHOCYTE: 96.33%
  MEAN CORPUSCULAR HEMOGLOBIN: 23.2 pg
  MEAN CORPUSCULAR HEMOGLOBIN CONCENTRATION: 38.73 G/DL
  MEAN CORPUSCULAR VOLUME: 59.9 fL
  MONOCYTE: 1%
  NEUTROPHIL: 2.67%
  NUCLEATED RED BLOOD CELLS: 0 /100WBC
  PLATELET COUNT: 1213.33 x10E3/uL
  ALANINE AMINOTRANSFERASE: 65 u/L
  ALBUMIN: 4.2 G/DL
  ALKALINE PHOSPHATASE: 440.33 u/L
  ASPARTATE AMINOTRANSFERASE: 88.67 u/L
  BLOOD UREA NITROGEN: 14 mg/dL
  CARBON DIOXIDE: 30 mmol/L
  CHLORIDE: 98.67 MEQ/L
  CHOLESTEROL: 69 mg/dL
  CREATINE PHOSPHOKINASE: 217.67 u/L
  CREATININE: 0.27 mg/dL
  GLUCOSE: 163.33 mg/dL
  LACTATE DEHYDROGENASE: 152.67 u/L
  LIPASE: 11.67 u/L
  PHOSPHORUS: 11.43 mg/dL
  POTASSIUM: 5.8 MEQ/L
  SODIUM: 144.67 MEQ/L
  TOTAL BILIRUBIN: 0.17 mg/dL
  TOTAL PROTEIN: 6.1 G/DL
  URIC ACID: 1 mg/dL
